Where two headings read alike, the source gives them in different places.
What was measured:
[1] = tested on: synthesis of intracellular triacylglycerols; assay: Inhibitory activity on the synthesis of intracellular triacylglycerols, [14C] oleic acid incorporation in CHO-K1 cells; format: cell-based, Chinese hamster; settings: [1-14C] oleic acid, 6 hours incubation, read-out: IC50, inhibition of formation of [14C] triacylglycerols
Protocol: The inhibitory activity on the synthesis of intracellular triacylglycerols of substance FKI-3864 according to the invention was tested in the manner described below.
Chinese hamster ovary cells (CHO-K1 cells) adjusted to 5.0×10^5 cells/mL with HAMs F12 medium (10% FBS, containing Penicillin/Streptomycin) were distributed on a 48-well plate in aliquots of 250 μL.
Then, after the cells were incubated at 37° C. for 12 hours in a 5% carbon dioxide gas incubator to adhere the cells, substance FKI-3864 (2.5 μL as a methanol solution) and [1−^14C] oleic acid (5 μL, 1.85 kBq, 1 nmol) were added, and incubation was continued for additional 6 hours.
The supernatant of the culture was removed, and after 0.1% SDS-Tris/HCl (pH 7.5, 120 μL) was added for lysis of the cells, neutral fat in the cells was extracted by the Bligh & Dyer method. After the extract was concentrated, it was spotted on a TLC (silica gel plate, Merck, 0.5 mm in thickness) and developed with a solvent of hexane/diethyl ether/acetic acid (70:30:1, v/v/v), and the quantity of isolated [^14C] triacylglycerols was determined with BAS 2000 (Fuji Film).
Using the same manner as in Test 1, the inhibitory activities on the synthesis of intracellular triacylglycerols of substances FKI-3864-1 and FKI-3864-2 were measured. […] In addition, the activities of mixtures in which substances FKI-3864-1 and FKI-3864-2 were mixed at different ratios are shown in Table 2.

Solubility in solvents = format: physicochemical
From the text: (7) Solubility in solvents: Soluble in methanol, chloroform, and ethyl acetate; insoluble in water.

| IC50 [1] | Solubility in solvents: methanol, chloroform, and ethyl acetate (Solubility in solvents) | Solubility in solvents: water (Solubility in solvents) | IC50 ([1]; Cricetulus griseus, CHO-K1, 6 h) | SMILES |
| --- | --- | --- | --- | --- |
| ≥ 12000 nM | Soluble | insoluble | – | CCCCCC(O)CC(O)CC1Cc2cc3cc(OC)c(-c4c(OC)cc5cc6c(c(O)c5c4O)C(=O)OC(CC(O)CC(O)CCCCC)C6)c(O)c3c(O)c2C(=O)O1 (single isomer, unassigned) [FKI-3864-1] |
| 540 nM | Soluble | insoluble | – | CCCCCC(O)CC(O)CC1Cc2cc3cc(OC)c(-c4c(OC)cc5cc6c(c(O)c5c4O)C(=O)OC(CC(O)CC(O)CCCCC)C6)c(O)c3c(O)c2C(=O)O1 (single isomer, unassigned) [FKI-3864-2] |
| – | Soluble | insoluble | 93 nM | CCCCCC(O)CC(O)CC1Cc2cc3cc(OC)c(-c4c(OC)cc5cc6c(c(O)c5c4O)C(=O)OC(CC(O)CC(O)CCCCC)C6)c(O)c3c(O)c2C(=O)O1 (stereo not drawn) [FKI-3864] |

— patent US8378125B2, “Substance FKI-3864 and method for preparation thereof” (School Juridical Person Kitasato Institute, priority 2008, dated 2013)
